Columns and labels:
human red blood cells = test: Hemolytic assay; format: cell-based
Method: The hemolytic activity of the O-acyl isopeptide prodrugs and the corresponding teixobactin analogues were evaluated with human red blood cells (FIGS. 9A to 9H). Triton X-100 and melittin were used as positive controls and vancomycin and water (vehicle) were used as negative controls in the hemolysis assays. […] In contrast, 0.002% polysorbate 80 had no effect on the hemolytic activity of Lys10-teixobactin and Leu10-teixobactin and little effect on the corresponding O-acyl isopeptide prodrug analogues. When the hemolysis assays were performed with teixobactin, no hemolysis was observed up to 100 μg/mL without polysorbate 80 and modest hemolysis (4%) at 100 μg/mL with 0.002% polysorbate 80.
Preparation of Phosphate-Buffered Saline (PBS) Buffers. A 10×PBS buffer was prepared by dissolving 8.9 g of Na2HPO4, 1.2 g KH2PO4, 40 g NaCl, and 1 g KCl in 500 mL of 18 MO deionized water. The solution was stirred until the buffer salts were completely dissolved. The pH of the 10×PBS buffer was adjusted to 7.4 using either 1 M HCl or 1 M NaOH and was subsequently sterile filtered. To create a 1×PBS buffer, the 10×PBS buffer was diluted 10-fold using 18 MO deionized water. Another 1×PBS buffer was made, supplemented with 0.002% polysorbate 80.
Preparation of human red blood cells. Whole human blood was stored in a 4° C. in K2 EDTA to prevent coagulation. On the day of cell treatment, the blood was centrifuged at 800×g for 5 min at 4° C. to isolate red blood cells (RBCs). The plasma layer was then removed and discarded. Approximately 3 mL of 150 mM NaCl solution was added to the RBCs and mixed gently by inversion. The RBCs were centrifuged at 800×g for 8 min at 4° C. and the supernatant was discarded. An additional wash with 150 mM NaCl was performed, centrifuged at 800×g for 8 min at 4° C. and the supernatant was discarded. 2 mL of whole RBCs were transferred to a 15-mL conical tube. Approximately 4 mL of 1×PBS was added to the RBCs and inverted gently to mix. The RBCs were centrifuged at 800×g for 8 min at 4° C. […]
Hemolytic assay readout. […]

[1] = Qualitative gelation assay in PBS; format: physicochemical; details: 10 mg/mL DMSO stock added to 1×PBS pH 7.4
Method: Gel formation of the teixobactin analogues was compared to that of the O-acyl isopeptide prodrugs in a qualitative gelation assay. In this experiment, a 10 mg/mL stock solution of the peptide trifluoroacetate salt in DMSO is added to 1×PBS buffer at pH 7.4 and gel formation is observed over time. Crystal violet is added to the PBS buffer to facilitate the visualization of the gels by providing contrast. […] In contrast, when the Lys10-teixobactin prodrugs are added, no immediate gel formation occurs.
Gelation assays of the O-acyl isopeptide prodrug analogues of teixobactin were performed using procedures previously reported. See K. Chen, et al., Chem. Commun. 2017, 53, 11357-11359, the disclosure of which is herein incorporated by reference.

[2] = tested on: four Gram-positive bacteria (methicillin-susceptible and methicillin-resistant S. aureus, B. subtilis, S. epidermidis); format: cell-based
Method: The antibiotic activity of the teixobactin O-acyl isopeptide prodrugs was evaluated using minimum inhibitory concentration (MIC) assays with four Gram-positive bacteria and compared the MIC values to those of the parent teixobactin analogues. Methicillin-susceptible and methicillin-resistant S. aureus were used as representative pathogens and B. subtilis and S. epidermidis as additional Gram-positive bacteria, and E. coli was used as a Gram-negative control. The activities of the teixobactin analogues and prodrugs were compared to those of teixobactin and vancomycin.
Bacillus subtilis (ATCC 6051), Staphylococcus epidermidis (ATCC 14990), Staphylococcus aureus (ATCC 29213), and Escherichia coli(ATCC 10798) were cultured from glycerol stocks in Mueller-Hinton broth overnight in a shaking incubator at 37° C. Staphylococcus aureus (ATCC 700698) was cultured from a glycerol stock in brain heart infusion broth overnight in a shaking incubator at 37° C. An aliquot of a 1 mg/mL antibiotic stock solution in DMSO was diluted with appropriate culture media to make a 64 μg/mL solution. […] The overnight cultures of each bacterium were diluted with Mueller-Hinton broth to an OD600 of 0.075 as measured for 200 μL in a 96-well plate. […] The OD600 were measured using a 96-well UV/vis plate reader (MultiSkan GO, Thermo Scientific). […]

gel formation immediately upon addition to PBS [1]	MIC [2]	SMILES	effect of 0.002% polysorbate 80 on hemolytic activity (human red blood cells)	hemolysis (human red blood cells; concentrations up to 100 μg/mL, with and without 0.002% polysorbate 80)
form gels immediately	–	CC[C@H](C)[C@H](NC(=O)[C@@H](Cc1ccccc1)NC)C(=O)N[C@@H](CO)C(=O)N[C@H](CCC(N)=O)C(=O)N[C@@H](C(=O)N[C@H](C(=O)N[C@@H](CO)C(=O)N[C@H]1C(=O)N[C@@H](C)C(=O)N[C@@H](CC(C)C)C(=O)N[C@@H]([C@@H](C)CC)C(=O)O[C@H]1C)[C@@H](C)CC)[C@@H](C)CC [Leu10-teixobactin]	no effect	–
form gels immediately	–	CC[C@H](C)[C@H](NC(=O)[C@@H](Cc1ccccc1)NC)C(=O)N[C@@H](CO)C(=O)N[C@H](CCC(N)=O)C(=O)N[C@@H](C(=O)N[C@H](C(=O)N[C@@H](CO)C(=O)N[C@H]1C(=O)N[C@@H](C)C(=O)N[C@@H](CCCNC(=N)N)C(=O)N[C@@H]([C@@H](C)CC)C(=O)O[C@H]1C)[C@@H](C)CC)[C@@H](C)CC [Arg10-teixobactin]	–	–
–	–	CN[C@H](CC(C)C)C(=O)N[C@H]1C(=O)N[C@@H](CC(N)=O)C(=O)N[C@H]2C(=O)N[C@H]3C(=O)N[C@H](C(=O)N[C@H](C(=O)O)c4cc(O)cc(O)c4-c4cc3ccc4O)[C@H](O)c3ccc(c(Cl)c3)Oc3cc2cc(c3O[C@@H]2O[C@H](CO)[C@@H](O)[C@H](O)[C@H]2O[C@H]2C[C@](C)(N)[C@H](O)[C@H](C)O2)Oc2ccc(cc2Cl)[C@H]1O [vancomycin]	–	No hemolysis

SMILES	gel formation immediately upon addition to PBS [1]	MIC [2]	effect of 0.002% polysorbate 80 on hemolytic activity (human red blood cells)	hemolysis (human red blood cells; concentrations up to 100 μg/mL, with and without 0.002% polysorbate 80)
CC[C@H](C)[C@H](NC(=O)[C@@H](Cc1ccccc1)NC)C(=O)N[C@@H](CO)C(=O)N[C@H](CCC(N)=O)C(=O)N[C@@H](C(=O)N[C@H](C(=O)N[C@@H](CO)C(=O)N[C@H]1C(=O)N[C@@H](C)C(=O)N[C@@H](CCCCN)C(=O)N[C@@H]([C@@H](C)CC)C(=O)O[C@H]1C)[C@@H](C)CC)[C@@H](C)CC [Lys10-teixobactin]	large gelatinous aggregates form immediately	2 to 4 µg/mL	no effect	–

From patent US20250011366A1, “Prodrugs of Antibiotic Teixobactin” (priority 2021, published 2025)
